Experimental data reported in PubChem BioAssay (NCI).
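These data come from cells grown in 96-well plates and exposed to compound for 48 hours at five concentrations. At the GI50, growth is halved. TGI: total growth inhibition.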

What was measured:
Test in all cases: NCI anticancer screen, dose series, 48 h
[1] = tested on: DLD-1 colon
[2] = tested on: KM12 colon
[3] = tested on: SF-539 CNS
[4] = tested on: HT29 colon
[5] = tested on: U251 CNS
[6] = tested on: OVCAR-3 ovarian
[7] = tested on: LXFL 529 NSCLC
[8] = tested on: SK-OV-3 ovarian
[9] = tested on: MOLT-4 leukemia
[10] = tested on: SNB-75 CNS
[11] = tested on: SF-268 CNS
[12] = tested on: IGROV1 ovarian
[13] = tested on: TK-10 renal
[14] = tested on: RXF 393 renal
[15] = tested on: OVCAR-5 ovarian
[16] = tested on: OVCAR-8 ovarian
[17] = tested on: NCI-H23 lung
[18] = tested on: M19-MEL melanoma
[19] = tested on: KM20L2 colon
[20] = tested on: HL-60(TB) leukemia
[21] = tested on: HOP-18 NSCLC
[22] = tested on: SNB-78 CNS
[23] = tested on: NCI-H460 lung
[24] = tested on: HOP-92 NSCLC
[25] = tested on: MALME-3M melanoma
[26] = tested on: A498 renal
[27] = tested on: UACC-257 melanoma
[28] = tested on: XF 498 CNS
[29] = tested on: EKVX NSCLC
[30] = tested on: SK-MEL-2 melanoma
[31] = tested on: A549 NSCLC
[32] = tested on: SF-295 CNS
[33] = tested on: NCI-H522 lung
[34] = tested on: RPMI-8226 leukemia
[35] = tested on: ACHN renal
[36] = tested on: SNB-19 CNS
[37] = tested on: UO-31 renal
[38] = tested on: CCRF-CEM leukemia
[39] = tested on: DMS 273 small cell lung
[40] = tested on: K-562 leukemia
[41] = tested on: DMS 114 small cell lung
[42] = tested on: HCC-2998 colon
[43] = tested on: COLO 205 colon
[44] = tested on: HCT-116 colon
[45] = tested on: 786-0 renal
[46] = tested on: SW-620 colon
[47] = tested on: SK-MEL-28 melanoma
[48] = tested on: HOP-62 NSCLC
[49] = tested on: HCT-15 colon
[50] = tested on: CAKI-1 renal
[51] = tested on: SN12C renal
[52] = tested on: UACC-62 melanoma
[53] = tested on: OVCAR-4 ovarian
[54] = tested on: SR leukemia
[55] = tested on: RXF-631 renal
[56] = tested on: LOX IMVI melanoma
[57] = tested on: M14 melanoma
[58] = tested on: SK-MEL-5 melanoma
[59] = tested on: NCI-H226 lung

## Clc1ccccc1C1=NN(c2ccccc2)C2c3cc(Br)ccc3OCC12 (stereo unspecified)
[1]
  TGI: > 100 µM
[2]
  TGI: > 100 µM
[3]
  TGI: > 100 µM
[4]
  TGI: > 100 µM
[5]
  TGI: > 100 µM
[6]
  TGI: > 100 µM
[7]
  TGI: > 100 µM
[8]
  TGI: > 100 µM
[9]
  TGI: > 100 µM
[10]
  TGI: > 100 µM
[11]
  TGI: > 100 µM
[12]
  TGI: > 100 µM
[13]
  TGI: > 100 µM
[14]
  TGI: > 100 µM
[15]
  TGI: > 100 µM
[16]
  TGI: > 100 µM
[17]
  TGI: > 100 µM
[18]
  TGI: > 100 µM
[19]
  TGI: > 100 µM
[20]
  TGI: > 100 µM
[21]
  TGI: > 100 µM
[22]
  TGI: > 100 µM
[23]
  TGI: > 100 µM
[24]
  TGI: > 100 µM
[25]
  TGI: > 100 µM
[26]
  TGI: > 100 µM
[27]
  TGI: > 100 µM
[28]
  TGI: > 100 µM
[29]
  TGI: > 100 µM
[30]
  TGI: > 100 µM
[31]
  TGI: > 100 µM
[32]
  TGI: > 100 µM
[33]
  TGI: > 100 µM
[34]
  TGI: > 100 µM
[35]
  TGI: > 100 µM
[36]
  TGI: > 100 µM
[37]
  TGI: > 100 µM
[38]
  TGI: > 100 µM
[39]
  TGI: > 100 µM
[40]
  TGI: > 100 µM
[41]
  TGI: > 100 µM
[42]
  TGI: > 100 µM
[43]
  TGI: > 100 µM
[44]
  TGI: > 100 µM
[45]
  TGI: > 100 µM
[46]
  TGI: > 100 µM
[47]
  TGI: > 100 µM
[48]
  TGI: > 100 µM

## CC[C@@]1(O)C(=O)OCc2c1cc1n(c2=O)Cc2cc3c(NC(C)=O)c(O)ccc3nc2-1
[1]
  GI50: 43.3 µM
  TGI: > 100 µM
[2]
  GI50: 14.4 µM
  TGI: > 61.3 µM
[49]
  GI50: 18 µM
  TGI: > 100 µM
[3]
  GI50: 0.388 µM
  TGI: 1.96 µM
[4]
  GI50: 13.7 µM
  TGI: > 77.5 µM
[50]
  GI50: 0.468 µM
  TGI: 13.7 µM
[5]
  GI50: 0.252 µM
  TGI: 4.46 µM
[6]
  GI50: 9.7 µM
  TGI: 41.1 µM
[7]
  GI50: 12.5 µM
  TGI: > 100 µM
[51]
  GI50: 0.456 µM
  TGI: > 20.8 µM
[8]
  GI50: 1.4 µM
  TGI: 45.7 µM
[9]
  GI50: 0.133 µM
  TGI: 0.968 µM
[10]
  GI50: 0.744 µM
  TGI: 7.31 µM
[11]
  GI50: 0.417 µM
  TGI: > 52.3 µM
[12]
  GI50: 6.27 µM
  TGI: > 88.5 µM
[13]
  GI50: > 71.4 µM
  TGI: > 100 µM
[52]
  GI50: 0.272 µM
  TGI: 2.71 µM
[14]
  GI50: 2.34 µM
  TGI: 20.2 µM
[15]
  GI50: 4.19 µM
  TGI: > 100 µM
[16]
  GI50: 1.54 µM
  TGI: > 47.7 µM
[17]
  GI50: 0.762 µM
  TGI: 9.15 µM
[18]
  GI50: 4.93 µM
  TGI: 43.7 µM
[19]
  GI50: 16.3 µM
  TGI: > 100 µM
[20]
  GI50: 0.416 µM
  TGI: 5.05 µM
[21]
  GI50: 7.57 µM
  TGI: > 100 µM
[22]
  GI50: 28.9 µM
  TGI: > 100 µM
[53]
  GI50: 14.6 µM
  TGI: 44.7 µM
[23]
  GI50: 0.288 µM
  TGI: 4.24 µM
[24]
  GI50: 7.76 µM
  TGI: 51.9 µM
[25]
  GI50: 4.83 µM
  TGI: 65.5 µM
[26]
  GI50: 5.9 µM
  TGI: 22.5 µM
[54]
  GI50: < 0.0148 µM
  TGI: 0.108 µM
[55]
  GI50: 4.47 µM
  TGI: > 100 µM
[27]
  GI50: 10.8 µM
  TGI: > 86.6 µM
[28]
  GI50: 5.39 µM
  TGI: 51 µM
[29]
  GI50: 81.4 µM
  TGI: > 100 µM
[30]
  GI50: 17.8 µM
  TGI: 53.5 µM
[31]
  GI50: 1.68 µM
  TGI: > 100 µM
[32]
  GI50: 0.721 µM
  TGI: > 32.1 µM
[33]
  GI50: 0.565 µM
  TGI: 14.5 µM
[34]
  GI50: 4.58 µM
  TGI: 56.8 µM
[35]
  GI50: 0.389 µM
  TGI: 2.85 µM
[36]
  GI50: 0.917 µM
  TGI: > 56.6 µM
[56]
  GI50: 0.497 µM
  TGI: 6.31 µM
[37]
  GI50: 1.76 µM
  TGI: 16.2 µM
[38]
  GI50: 0.0542 µM
  TGI: 1.07 µM
[39]
  GI50: 0.296 µM
  TGI: 8.33 µM
[40]
  GI50: 3.47 µM
  TGI: > 70.2 µM
[41]
  GI50: 0.353 µM
  TGI: 7.58 µM
[57]
  GI50: 1.04 µM
  TGI: 15.8 µM
[58]
  GI50: 2.08 µM
  TGI: 8.97 µM
[59]
  GI50: 2.98 µM
  TGI: > 20.3 µM
[42]
  GI50: 8.21 µM
  TGI: 47.1 µM
[43]
  GI50: 17.6 µM
  TGI: > 100 µM
[44]
  GI50: 2.41 µM
  TGI: 24.6 µM
[45]
  GI50: 0.373 µM
  TGI: 2.17 µM
[46]
  GI50: 1.94 µM
  TGI: > 100 µM
[47]
  GI50: > 25.9 µM
  TGI: > 100 µM
[48]
  GI50: 0.214 µM
  TGI: 0.631 µM
